Test results reported in patent US8728797B2, “Yeast membrane protein expression system and its application in drug screening” (priority 2001, dated 2014).

Tests used:
[1] = test system: S. cerevisiae AD1002 (CDR1+); assay: Disk drug susceptibility assay, AD1002 compared with parental strain; assay type: cell-based; details: drug on filter disks, 30° C., 48 h
Procedure: (§1) S. cerevisiae AD1-8u^− (CDR1−) or AD1002 (CDR1+) cells (5×10^5) seeded in top agar on CSM agar plates (containing uracil for AD1-8u^−) were exposed to drugs or chemicals applied to filter disks and incubated at 30° C. for 48 h. The sensitivity of AD1002 to drugs or chemicals was unaffected by supplementing the medium with uridine (0.02% w/v). Amounts of individual drugs applied to disks are given in the Materials and methods section of Example 2, below.
(§2) Drug susceptibility was measured using disk assays on CSM-URA plates (containing 1.5% w/v agar). Plates were seeded with yeast cells suspended in top agar (5 ml, 10^5 cells/ml). For the uracil-dependent parental strain, agar was supplemented with 0.02% uridine. Five microliters of drug solution or solvent control were spotted onto sterile Whatman paper disks on the top agar. The following amounts (nmoles) of drugs were applied to individual disks: fluconazole, 6.5 (Pfizer Ltd., Sandwich, Kent, United Kingdom); ketoconazole, 0.094 (Janssen Research Foundation, Beerse, Belgium); itraconazole, 0.35 (Janssen); miconazole, 0.084 (Janssen); amphotericin B, 54 (E. R. Squibb & Sons, Princeton, N.J.); rhodamine 6G, 10 (Sigma, Penrose, Auckland, N. Z.); rhodamine 123, 50 (Sigma); trifluoperazine 100 (Sigma); benomyl, 10 (Nippon Roche); cycloheximide, 5 (Sigma); carbonyl cyanide p-chlorophenylhydrazone, 490 (CCCP, Sigma); oligomycin, 10 (Sigma); nigericin, 100 (Sigma); tamoxifen, 25 (Sigma); naftifine, 50 (Novartis); quinidine, 500 (Sigma); valinomycin, 20 (Sigma); verapamil, 1000 (Sigma). Agar plates were incubated at 30° C. for 48 h or until clear growth inhibition zones were visible.

AD-ERG11 (Erg11p) = assay: Disk diffusion assay, AD-ERG11; assay type: cell-based, S. cerevisiae; details: AD-pABC as negative control, 30° C., 48 h
Procedure: (§3) The cells were spread on CSM-agar plates and exposed to the drugs or chemicals applied to filter disks and incubated at 30° C. for 48 h. The amounts of individual drugs are given in the Materials and Methods section of Example 3. Rhodamine 6G and rhodamine 123 were dissolved in ethanol and the other antifungals were dissolved in DMSO.
(§4) Drug susceptibility was measured using disk assays on CSM-URA plates (containing 1.5% w/v agar). Yeast cells (200 μl ml of 5×10^6 cells/ml) were spread on the plates. 10 μl of drug solution or solvent control were spotted onto sterile Whatman paper disks on the pre-spread plates. The following amounts (nmoles) of drugs were applied to individual disks: fluconazole, 633 (Pfizer Ltd., Sandwich, Kent, United Kingdom); itraconazole, 0.23 (Janssen); miconazole, 0.42 (Janssen); cycloheximide, 0.71 (Sigma); rhodamine 6G, 100 (Sigma, Penrose, Auckland, N. Z.); rhodamine 123, 125 (Sigma); cerulenin 4.5 (Sigma); 5-flucytosine 100 (Sigma); amphotericin B, 97 (E. R. Squibb & Sons, Princeton, N.J.); nystatin 65 (Sigma). Agar plates were incubated at 30° C. for 48 h or until clear growth inhibition zones were visible.

AD-BEN^R (Ben^Rp) = assay: Disk diffusion assay, AD-BEN^R; assay type: cell-based, S. cerevisiae; details: AD-pABC as negative control, 30° C., 48 h
Procedure: as §3, §4

AD-PDR5 (Pdr5p) = assay: Disk diffusion assay, AD-PDR5; assay type: cell-based, S. cerevisiae; details: AD-pABC as negative control, 30° C., 48 h
Procedure: as §3, §4

AD-CDR1 (Cdr1p) = assay: Disk diffusion assay, AD-CDR1; assay type: cell-based, S. cerevisiae; details: AD-pABC as negative control, 30° C., 48 h
Procedure: as §3, §4

Cdr1p ATPase = molecular target: T1, Cdr1p ATPase (Candida albicans, UniProt P43071, E1416A/I916V/K1177E/L1021S/Q214E/T842S/Y427F); assay: Oligomycin sensitive ATPase/NTPase activity of AD1002 plasma membranes; assay type: biochemical, C. albicans
T1 construct: expressed in transfected cells; host or cells: S. cerevisiae AD1-8u- with pKEN1002 integrated at the PDR5 locus (strain AD1002), plasma membrane fraction
Procedure: Membrane fractions were isolated from S. cerevisiae AD1002 (▪) or parental AD1-8u^− cells (●). ATPase assays were carried out at 30° C. for 30 min, as described in Materials and methods for Example 2. The oligomycin-sensitive activity was determined as the difference in ATPase activity in the presence and absence of 20 μM oligomycin. […] The results are the means (+/−SD) of four determinations carried out on two membrane preparations.
(B) Inhibition profile with KN20 on the oligomycin-sensitive Cdr1p ATPase activity of plasma membranes from AD1002 minus the oligomycin-sensitive ATPase activity of plasma membranes from the isogenic AD1-8u^− strain.
Yeast were grown in YEPD, pH 5.5 at 30° C. until they reached late-exponential phase of growth (OD600 nm=7), washed twice in ice-cold distilled water, and incubated on ice for 30 min to minimize glucose-stimulated Pma1p activity. Cells were resuspended in homogenising medium (50 mM Tris pH 7.5, 2 mM EDTA and 1 mM phenylmethylsulfonyl fluoride) and disrupted using a Braun Homogeniser. Cell debris and unbroken cells were removed by centrifuging at 2,000×g at 4° C. for 10 min. A crude membrane fraction was isolated from the cell-free supernatant by centrifuging at 30,000×g at 4° C. for 45 min. Plasma membranes were prepared by centrifugation of the supernatant obtained after selective precipitation of mitochondria at pH 5.2 as described previously (Goffeau, A. and Dufour, J. P., 1988). The plasma membranes were resuspended in 10 mM Tris pH 7.0, 0.5 mM EDTA and 20% [v/v] glycerol and stored at −80° C. Protein was determined using a micro-Bradford (Bio-Rad Laboratories, Hercules, Calif. [Bradford, M. M., 1976]) assay with gamma-globulin as standard. Nucleotide triphosphatase activity was measured by incubating the plasma membrane fractions (10 μg) at 30° C. in a final volume of 120 μl containing 6 mM NTP, 7 mM MgSO4 in 59 mM MES-Tris buffer pH 6.0-8.0. To eliminate possible contributions from nonspecific phosphatases, vacuolar, or mitochondrial ATPases, 0.2 mM ammonium molybdate, 50 mM KNO3 and 10 mM NaN3, respectively, were included in assays (Monk B C, et al, 1991). Other ATPase inhibitors (20 μM oligomycin, 20 μM aurovertin B or 100 μM vanadate were added to the reaction where indicated. After 30 min the reaction was stopped by adding 130 μl of a solution containing 1% (w/v) SDS, 0.6 M H2SO4, 1.2% (w/v) ammonium molybdate and 1.6% (w/v) ascorbic acid. Inorganic phosphate released from NTPs was measured at 750 nm after 10 min incubation at room temperature.

[2] = test system: S. cerevisiae AD1-8u^− (CDR1−); assay: Disk drug susceptibility assay, parental strain; assay type: cell-based; details: at the concentrations used; 30° C., 48 h
Procedure: as §1, §2

T1 sequence (P43071 whole entry Q214E/Y427F/T842S/I916V/L1021S/K1177E/E1416A): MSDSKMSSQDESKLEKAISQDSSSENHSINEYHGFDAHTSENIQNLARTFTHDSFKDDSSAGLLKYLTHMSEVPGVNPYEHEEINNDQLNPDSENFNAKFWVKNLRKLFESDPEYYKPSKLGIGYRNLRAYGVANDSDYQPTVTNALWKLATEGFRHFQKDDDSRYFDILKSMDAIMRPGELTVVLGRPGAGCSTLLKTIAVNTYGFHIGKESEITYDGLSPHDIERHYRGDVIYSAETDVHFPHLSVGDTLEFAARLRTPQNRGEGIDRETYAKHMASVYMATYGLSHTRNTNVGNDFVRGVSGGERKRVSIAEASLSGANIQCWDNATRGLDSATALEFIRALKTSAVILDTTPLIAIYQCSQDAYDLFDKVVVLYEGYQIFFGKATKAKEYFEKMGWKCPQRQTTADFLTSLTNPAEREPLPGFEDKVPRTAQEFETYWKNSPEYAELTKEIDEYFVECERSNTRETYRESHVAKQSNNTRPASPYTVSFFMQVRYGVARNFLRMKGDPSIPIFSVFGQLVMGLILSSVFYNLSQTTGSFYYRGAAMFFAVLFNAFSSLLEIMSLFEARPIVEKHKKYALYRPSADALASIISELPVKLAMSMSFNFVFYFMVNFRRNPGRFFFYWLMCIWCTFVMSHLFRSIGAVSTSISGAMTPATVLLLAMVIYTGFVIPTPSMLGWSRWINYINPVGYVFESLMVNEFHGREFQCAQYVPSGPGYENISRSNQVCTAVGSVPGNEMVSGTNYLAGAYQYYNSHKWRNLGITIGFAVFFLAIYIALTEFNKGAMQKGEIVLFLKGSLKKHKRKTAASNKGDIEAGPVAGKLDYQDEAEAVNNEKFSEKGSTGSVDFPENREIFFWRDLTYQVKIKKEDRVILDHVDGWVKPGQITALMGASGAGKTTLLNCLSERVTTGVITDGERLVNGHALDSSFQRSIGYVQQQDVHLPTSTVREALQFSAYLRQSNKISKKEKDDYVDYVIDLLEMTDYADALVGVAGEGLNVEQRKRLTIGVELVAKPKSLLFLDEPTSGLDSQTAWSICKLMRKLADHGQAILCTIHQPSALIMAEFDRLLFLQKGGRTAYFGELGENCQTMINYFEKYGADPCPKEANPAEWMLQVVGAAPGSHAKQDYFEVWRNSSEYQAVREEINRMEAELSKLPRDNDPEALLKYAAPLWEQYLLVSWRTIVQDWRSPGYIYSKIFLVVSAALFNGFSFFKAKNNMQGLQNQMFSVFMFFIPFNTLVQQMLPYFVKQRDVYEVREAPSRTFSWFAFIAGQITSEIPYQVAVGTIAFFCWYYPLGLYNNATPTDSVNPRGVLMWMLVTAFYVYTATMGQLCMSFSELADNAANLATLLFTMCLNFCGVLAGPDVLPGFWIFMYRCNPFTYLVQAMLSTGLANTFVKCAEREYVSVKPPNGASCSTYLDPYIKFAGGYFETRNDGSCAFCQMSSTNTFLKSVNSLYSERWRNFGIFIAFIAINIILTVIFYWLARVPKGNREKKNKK

Compound	resistance of AD1002 relative to parental strain in disk assay [1]	resistance/sensitivity in disk diffusion assay (AD-ERG11 (Erg11p))	resistance/sensitivity in disk diffusion assay (AD-BEN^R (Ben^Rp))	resistance/sensitivity in disk diffusion assay (AD-PDR5 (Pdr5p))	resistance/sensitivity in disk diffusion assay (AD-CDR1 (Cdr1p))	other results
CN(C/C=C/c1ccccc1)Cc1cccc2ccccc12 [naftifine]	cross-resistance	–	–	–	–	–
CN1CCN(CCCN2c3ccccc3Sc3ccc(C(F)(F)F)cc32)CC1 [trifluoperazine]	confers resistance to growth inhibition	–	–	–	–	–
C/C=C/C/C=C/CCC(=O)[C@H]1O[C@H]1C(N)=O [cerulenin]	–	susceptible	resistant	–	–	–
COc1ccc(CCN(C)CCCC(C#N)(c2ccc(OC)c(OC)c2)C(C)C)cc1OC (centres unmarked) [verapamil]	confers resistance to growth inhibition	–	–	–	–	–
Clc1ccc(COC(Cn2ccnc2)c2ccc(Cl)cc2Cl)c(Cl)c1 (centres unmarked) [miconazole]	–	some resistance	detectable resistance	resistances	resistances	–
[O]=[V]([O-])([O-])[O-] [vanadate]	–	–	–	–	–	sensitivity of AD1002 ATPase/NTPase activity to inhibitor (Cdr1p ATPase; vanadate 100 μM): completely sensitive
CC[C@H]1O[C@]2(C)[C@H](OC(C)=O)[C@@]1(C)O[C@@H](/C=C/C=C/C=C/c1oc(=O)cc(OC)c1C)[C@@H]2O [aurovertin B]	–	–	–	–	–	sensitivity of AD1002 ATPase/NTPase activity to inhibitor (Cdr1p ATPase; aurovertin B 20 μM): insensitive
C[C@@H]1[C@H](O)[C@@H](C)/C=C/C=C/C=C/C=C/C=C/C=C/C=C/[C@H](O[C@@H]2O[C@H](C)[C@@H](O)[C@H](N)[C@@H]2O)C[C@@H]2O[C@](O)(C[C@@H](O)C[C@@H](O)[C@H](O)CC[C@@H](O)C[C@@H](O)CC(=O)O[C@H]1C)C[C@H](O)[C@H]2C(=O)O [amphotericin B]	–	–	–	sensitivities	sensitivities	resistance of AD1002 relative to parental strain in disk assay ([1]; listed as Amphotericin B): toxicity in yeast was not modified
C=C[C@H]1C[N@@]2CC[C@H]1C[C@@H]2[C@@H](O)c1ccnc2ccc(OC)cc12 [quinidine]	–	–	–	–	–	sensitivity of parental strain AD1-8u^− in disk assay [2]: resistant
rhodamine 123	clear resistance	susceptible	fully sensitive	resistances	resistances	–
C[C@@H]1C[C@@H]([C@H](O)CC2CC(=O)NC(=O)C2)C(=O)[C@@H](C)C1 [cycloheximide]	confers resistance to growth inhibition	susceptible	resistant	resistances	resistances	–
CC[C@H]1/C=C/C=C/C[C@@H](C)[C@H](O)[C@@](C)(O)C(=O)[C@@H](C)[C@H](O)[C@@H](C)C(=O)[C@@H](C)[C@H](O)[C@@H](C)/C=C/C(=O)O[C@@H]2[C@H](C)[C@H](CC1)O[C@]1(CC[C@H](C)[C@H](C[C@@H](C)O)O1)[C@H]2C [oligomycin]	–	–	–	–	–	sensitivity of parental strain AD1-8u^− in disk assay [2]: resistant
Nc1[nH]c(=O)ncc1F [flucytosine]	–	susceptible	sensitive	sensitivities	sensitivities	–
CC/C(=C(\c1ccccc1)c1ccc(OCCN(C)C)cc1)c1ccccc1 [tamoxifen]	confers resistance to growth inhibition	–	–	–	–	–
CC(C)[C@@H]1NC(=O)[C@H](C)OC(=O)[C@@H](C(C)C)NC(=O)[C@@H](C(C)C)OC(=O)[C@H](C(C)C)NC(=O)[C@H](C)OC(=O)[C@@H](C(C)C)NC(=O)[C@@H](C(C)C)OC(=O)[C@H](C(C)C)NC(=O)[C@H](C)OC(=O)[C@@H](C(C)C)NC(=O)[C@@H](C(C)C)OC1=O [valinomycin]	–	–	–	–	–	sensitivity of parental strain AD1-8u^− in disk assay [2]: resistant
CCCCNC(=O)n1c(NC(=O)OC)nc2ccccc21 [benomyl]	–	–	–	–	–	sensitivity of parental strain AD1-8u^− in disk assay [2]: resistant
CO[C@@H]1C[C@@H](C[C@H]2CC[C@H](C)[C@H]([C@@H](C)C(=O)O)O2)O[C@]2(O[C@](C)([C@H]3CC[C@@](C)([C@@H]4O[C@@H]([C@H]5O[C@@](O)(CO)[C@H](C)C[C@@H]5C)C[C@@H]4C)O3)C[C@H]2C)[C@@H]1C [nigericin]	confers resistance to growth inhibition	–	–	–	–	–
C[C@@H]1[C@H](O)[C@@H](C)/C=C/C=C/CC/C=C/C=C/C=C/C=C/C(O[C@H]2O[C@H](C)[C@@H](O)[C@H](N)[C@@H]2O)CC2O[C@](O)(CC(O)C(O)CCC(O)CC(O)CC(O)CC(=O)O[C@H]1C)CC(O)C2C(=O)O (some centres unmarked) [nystatin]	–	–	–	sensitivities	sensitivities	–
rhodamine 6G	clear resistance	susceptible	fully sensitive	resistances	resistances	–
